In article PMC4810081, “Venetoclax (ABT-199) Might Act as a Perpetrator in Pharmacokinetic Drug–Drug Interactions” (Pharmaceutics, 2016):

Assays:
CYP1A2 = experiment: Induction assay, CYP1A2 mRNA by real-time RT-PCR in LS180 cells; type: in vitro ADME, human; details: four days, 10 µM
Method: (§1) LS180 cells. The human colon adenocarcinoma cell line LS180 (available at ATCC, Manassas, VA, USA) is one of the standard models for investigating pregnane X receptor (PXR) and aryl hydrocarbon receptor (AhR) mediated induction and was thus used for induction experiments. Cells were cultured under standard cell culture conditions with DMEM supplemented with 10% FCS, 2 mM of glutamine, 100 U/mL of penicillin, 100 µg/mL of streptomycin sulfate, and 0.1 mM of nonessential amino acids.
(§2) For the induction experiments, LS180 cells were seeded in 75 cm^2 culturing flasks and incubated for three days. […]
(§3) RNA was isolated using the GenElute™ Mammalian Total RNA Miniprep Kit, and cDNA was synthesized with the RevertAid™ H Minus First Strand cDNA Synthesis Kit according to the manufacturer's instructions. mRNA expression was quantified by real-time RT-PCR with the LightCycler® 480 (Roche Applied Science, Mannheim, Germany) as described previously. […] Data were evaluated via calibrator-normalized relative quantification with efficiency correction using the LightCycler® 480 software version 1.5 (Roche Applied Science, Mannheim, Germany). […] The following target genes were quantified: CYP1A1, CYP1A2, CYP3A4, ABCB1, ABCC2, ABCG2, SLCO1B1 (coding for OATP1B1), UDP-glucuronosyltransferase 1A3 (UGT1A3), and UGT1A9.

UGT1A9 = experiment: Induction assay, UGT1A9 mRNA by real-time RT-PCR in LS180 cells; type: in vitro ADME, human; details: four days, 10 µM
Method: as §1, §2, §3

[1] = Intestinal concentration by FDA formula; details: after a dose of 250 mg, according to FDA formula (dose/250 mL)
Method: Thus, the question of whether these effects will also play a role in the clinical situation arises. Therapeutic plasma concentrations of venetoclax reach about 5 µM [3, 34, 35], a similar range to concentrations inhibiting drug transporters and CYP in vitro. […] Thus, even the moderate inhibition of P-gp by venetoclax might be relevant and should be tested in vivo.

CYP1A1 = experiment: Induction assay, CYP1A1 mRNA by real-time RT-PCR in LS180 cells; type: in vitro ADME, human; details: four days, 10 µM
Method: as §1, §2, §3

MDCKII = experiment: Growth inhibition assay in MDCKII cells; type: cell-based; details: Canis lupus familiaris, MDCK-II; MDCKII parental cells
From the text: MDCKII cells. The transporter over-expressing cell lines MDCKII-MDR1 [5], MDCKII-MRP2 [6], and MDCKII-BCRP [7] and the corresponding parental cell line MDCKII were used to assess the sensitivity of cells with and without P-gp, multidrug resistance-associated protein 2 (MRP2/ABCC2), or BCRP expression. Moreover, MDCKII-BCRP cells were used to assess BCRP inhibition by venetoclax. MDCKII over-expressing cell lines were kindly provided by A. H. Schinkel and P. Borst (Amsterdam, The Netherlands). The parental cell line MDCKII (available at ATCC, Manassas, VA, USA) was used as a control. The cells were cultured in Dulbecco’s Modified Eagle’s Medium (DMEM) containing 10% FCS, 2 mM of glutamine, 100 U/mL of penicillin, and 100 µg/mL of streptomycin sulfate.
Growth inhibition assays in LS180 cells were conducted to determine suitable maximum concentrations for the induction assay without profound antiproliferative effects. Proliferation was quantified by crystal violet staining of the surviving cells as described previously. Each experiment was performed at least in triplicate with n = 8 wells for each concentration (0.1–100 µM). The IC20 for proliferation inhibition by venetoclax was 8.4 ± 1.0 µM; thus, the maximum concentration for the induction assay was set to 10 µM, ensuring that about 80% of the cells will survive. […]

ABCG2 = experiment: Induction assay, ABCG2 mRNA by real-time RT-PCR in LS180 cells; type: in vitro ADME, human; details: four days, 0.01–10 µM
Method: as §1, §2, §3

UGT1A3 = experiment: Induction assay, UGT1A3 mRNA by real-time RT-PCR in LS180 cells; type: in vitro ADME, human; details: four days, 10 µM
Method: as §1, §2, §3

OATP1B3 = target: T1, OATP1B3 (Homo sapiens, UniProt Q9NPD5); experiment: OATP1B3 inhibition, 8-FcA uptake in HEK-OATP1B3 cells; type: in vitro ADME
T1 construct: expressed in transfected cells; host or cells: HEK293 (HEK-OATP1B3; gift of D. Keppler)
T1 sequence (Q9NPD5 whole entry): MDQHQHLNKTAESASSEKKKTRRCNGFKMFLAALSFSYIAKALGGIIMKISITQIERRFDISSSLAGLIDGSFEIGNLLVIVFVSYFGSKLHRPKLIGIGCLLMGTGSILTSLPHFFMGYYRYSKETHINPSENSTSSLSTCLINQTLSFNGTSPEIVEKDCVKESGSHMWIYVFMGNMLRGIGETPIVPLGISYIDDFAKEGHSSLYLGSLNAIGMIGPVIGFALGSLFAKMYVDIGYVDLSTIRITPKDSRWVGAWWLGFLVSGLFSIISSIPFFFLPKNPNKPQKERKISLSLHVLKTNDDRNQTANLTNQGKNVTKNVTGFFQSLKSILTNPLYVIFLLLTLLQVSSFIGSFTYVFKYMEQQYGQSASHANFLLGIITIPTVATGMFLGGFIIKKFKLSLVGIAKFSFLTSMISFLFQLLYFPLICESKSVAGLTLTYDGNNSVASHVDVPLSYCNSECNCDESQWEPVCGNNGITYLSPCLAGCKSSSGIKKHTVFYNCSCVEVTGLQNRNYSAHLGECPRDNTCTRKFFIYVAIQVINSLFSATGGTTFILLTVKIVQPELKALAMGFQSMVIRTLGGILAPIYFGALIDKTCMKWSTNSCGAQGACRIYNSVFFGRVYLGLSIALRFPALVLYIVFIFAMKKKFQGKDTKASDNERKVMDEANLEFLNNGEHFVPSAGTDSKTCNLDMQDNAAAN
Method: HEK293 cells. For assessing inhibition of OATP1B1 and OATP1B3, the human embryonic kidney cell line HEK293 stably transfected with OATP1B1 (HEK-OATP1B1), OATP1B3 (HEK-OATP1B3), or the empty control vector (HEK293-VCG418) were used. Cells were cultured under standard cell culture conditions with DMEM supplemented with 10% FCS, 2 mM of glutamine, 100 U/mL of penicillin, 100 µg/mL of streptomycin sulfate, and 800 µg/mL of G418 to maintain over-expression. Cells were kindly provided by D. Keppler (German Cancer Research Centre, Heidelberg, Germany).
Inhibition of OATP1B1 and OATP1B3 was analyzed in HEK-OATP1B1 and HEK-OATP1B3 cells by quantifying the uptake of the fluorescent substrate 8-FcA by flow cytometry as described previously. HEK293-VCG418 cells were used as a control. Inhibition of OATPs leads to a reduced uptake of 8-FcA into the cells. Each experiment was performed at least in triplicate, and venetoclax was tested from 0.05 up to 100 µM.

LLC-PK1 = experiment: Growth inhibition assay in LLC-PK1 cells; type: cell-based, porcine; details: Sus scrofa
Method: LLC-PK1 and L-MDR1 cells. L-MDR1 cells, a porcine kidney epithelial cell line over-expressing the human ABCB1 gene and the corresponding parental control cell line LLC-PK1 (available from ATCC, Manassas, VA, USA) were used to assess the sensitivity of cells with and without P-gp over-expression. L-MDR1 cells were kindly provided by A. H. Schinkel (The Netherlands Cancer Institute, Division of Experimental Therapy, Amsterdam, The Netherlands). The cells were cultured under standard cell culture conditions with medium M199 supplemented with 10% FCS, 2 mM of glutamine, 100 U/mL of penicillin, and 100 µg/mL of streptomycin sulfate. To maintain P-gp/ABCB1 expression the culture medium for L-MDR1 was supplemented with 0.64 µM of vincristine. One day before seeding the cells for the growth inhibition assay, both cell lines were fed with a vincristine-free culture medium.
Growth inhibition assays in LS180 cells were conducted to determine suitable maximum concentrations for the induction assay without profound antiproliferative effects. Proliferation was quantified by crystal violet staining of the surviving cells as described previously. Each experiment was performed at least in triplicate with n = 8 wells for each concentration (0.1–100 µM). […]

Compound: CC1(C)CCC(CN2CCN(c3ccc(C(=O)NS(=O)(=O)c4ccc(NCC5CCOCC5)c([N+](=O)[O-])c4)c(Oc4cnc5[nH]ccc5c4)c3)CC2)=C(c2ccc(Cl)cc2)C1 [Venetoclax]
- mRNA expression of CYP1A2 (CYP1A2): induced
- mRNA expression of UGT1A9 (UGT1A9): induced
- concentration reached in the intestine [1]: about 1 mM
- mRNA expression of CYP1A1 (CYP1A1): induced
- IC50 (MDCKII): 15.2 ± 2.4 µM
- mRNA expression of ABCG2 (ABCG2): unchanged
- mRNA expression of UGT1A3 (UGT1A3): induced
- IC50 (OATP1B3): 26 ± 9.6 µM
- IC50 (LLC-PK1; LLC-PK1, LLC-PK1 + LY335979 (1 µM)): 24.9 ± 1 µM
- IC50 (LLC-PK1; LLC-PK1, LLC-PK1 parental cells): 21 ± 0.7 µM
